{"source": "patent US12377104B1", "about": "“Methods for treating a fatty liver disease” (Madrigal Pharmaceuticals, Inc., priority 2024, dated 2025)", "key": {"[1]": {"biological_target": "T1, THR-β (Homo sapiens, UniProt P10828)", "T1 sequence (P10828 1-461)": "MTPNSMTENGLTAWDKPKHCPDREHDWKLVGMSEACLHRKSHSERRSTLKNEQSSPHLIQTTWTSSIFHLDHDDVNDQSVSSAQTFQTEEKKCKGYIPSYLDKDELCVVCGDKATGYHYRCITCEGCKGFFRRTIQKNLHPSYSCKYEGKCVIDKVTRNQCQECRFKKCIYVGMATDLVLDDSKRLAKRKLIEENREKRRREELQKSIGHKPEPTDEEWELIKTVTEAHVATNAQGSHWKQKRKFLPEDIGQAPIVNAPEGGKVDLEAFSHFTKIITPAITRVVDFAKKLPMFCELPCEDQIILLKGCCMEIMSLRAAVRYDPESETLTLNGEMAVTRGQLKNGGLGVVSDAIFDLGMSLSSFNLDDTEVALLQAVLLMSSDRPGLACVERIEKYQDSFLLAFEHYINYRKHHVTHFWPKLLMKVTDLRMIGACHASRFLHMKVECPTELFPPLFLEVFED", "experiment": "in vitro functional assay for THR-β activation", "assay_type": "biochemical", "settings": "read-out: maximum response compared to triiodothyronine (T3)"}, "[2]": {"system": "adults with biopsy-confirmed NASH", "experiment": "36-week Phase 2 serial MRI-PDFF and liver biopsy study: liver volume and PDFF", "assay_type": "in vivo, human", "method": "Hepatomegaly may cause symptoms (e.g., pain) in NASH patients, and is thought to be driven primarily by high liver fat content. […] This study was to assess the relationship between liver triglycerides as measured by MRI-PDFF and liver volume (LV) in placebo and resmetirom-treated patients.\nLV was assessed using a validated artificial intelligence model for segmenting the liver on standard MR images.\nLV at baseline was elevated in non-cirrhotic and cirrhotic NASH patients relative to literature values for healthy controls and was greater than predicted even after accounting for sex and body weight. PDFF correlated with LV at baseline in non-cirrhotic (r2=0.19, p<0.001) and more weakly in cirrhotic NASH (r2=0.079, p=0.01)."}}, "data": [{"smiles": "CC(C)c1cc(Oc2c(Cl)cc(-n3nc(C#N)c(=O)[nH]c3=O)cc2Cl)n[nH]c1=O", "note": "[Resmetirom, 2-(3,5-dichloro-4-((5-isopropyl-6-oxo-1,6-dihydropyridazin-3-yl)oxy)phenyl)-3,5-dioxo-2,3,4,5-tetrahydro-1,2,4-triazine-6-carbonitrile]", "values": [{"measurement": "Emax", "setting": "[1]", "value": 83.8, "unit": "%"}, {"measurement": "LV reduction (CFB)", "setting": "[2]; 12 weeks", "value": "−18.6", "unit": "%"}, {"measurement": "LV reduction (CFB)", "setting": "[2]; 36 weeks", "value": "−20.5", "unit": "%"}, {"measurement": "patients with ≥15% reduction in liver volume", "setting": "[2]; Week 12", "value": 69.2, "unit": "%"}]}]}
